From ChEMBL document CHEMBL1201862, “PubChem BioAssay data set” (2004)
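Method: 48-hour compound exposure of cells in 96-well plates, five concentrations, linear interpolation of endpoints. The concentration for 50% growth inhibition is given as GI50.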 Activity calls are given as the source filed them. No stated cut-off is given here; in the data, active = GI50 up to about 1.1 µM and inactive = higher.

Tests used:
Experiment in all cases: NCI anticancer screen, dose series, 48 h
[1] = tested on: HCT-15
[2] = tested on: K562
[3] = tested on: OVCAR-5
[4] = tested on: SW-620
[5] = tested on: BT-549
[6] = tested on: UO-31
[7] = tested on: A498
[8] = tested on: KM12
[9] = tested on: UACC-257
[10] = tested on: RXF 393
[11] = tested on: NCI-H522
[12] = tested on: MDA-MB-231
[13] = tested on: PC-3
[14] = tested on: SR
[15] = tested on: Hs-578T
[16] = tested on: MCF7
[17] = tested on: LOX IMVI
[18] = tested on: TK-10
[19] = tested on: HOP-62
[20] = tested on: DU-145
[21] = tested on: ACHN
[22] = tested on: MOLT-4
[23] = tested on: M14
[24] = tested on: NCI-H460
[25] = tested on: SK-MEL-2
[26] = tested on: COLO 205
[27] = tested on: Malme-3M
[28] = tested on: SK-MEL-5
[29] = tested on: OVCAR-8
[30] = tested on: 786-0
[31] = tested on: SF-295
[32] = tested on: NCI/ADR-RES
[33] = tested on: T47D
[34] = tested on: HOP-92
[35] = tested on: U-251
[36] = tested on: MDA-MB-435
[37] = tested on: SF-539
[38] = tested on: RPMI-8226
[39] = tested on: EKVX
[40] = tested on: SK-OV-3
[41] = tested on: NCI-H23
[42] = tested on: MDA-N
[43] = tested on: OVCAR-4
[44] = tested on: SF-268
[45] = tested on: UACC-62
[46] = tested on: HCT-116
[47] = tested on: NCI-H226
[48] = tested on: SNB-75
[49] = tested on: HL-60
[50] = tested on: IGROV-1
[51] = tested on: SK-MEL-28
[52] = tested on: OVCAR-3
[53] = tested on: SN12C
[54] = tested on: A549
[55] = tested on: HT-29
[56] = tested on: SNB-19
[57] = tested on: CAKI-1
[58] = tested on: HCC 2998
[59] = tested on: CCRF-CEM

Compound: NCCNCC(O)CO (configuration not stated)
- GI50 [1]: > 100 µM
- GI50 [2]: > 100 µM (inactive)
- GI50 [3]: > 100 µM (inactive)
- GI50 [4]: > 100 µM (inactive)
- GI50 [5]: > 100 µM (inactive)
- GI50 [6]: > 100 µM (inactive)
- GI50 [7]: > 100 µM (inactive)
- GI50 [8]: > 100 µM (inactive)
- GI50 [9]: > 100 µM (inactive)
- GI50 [10]: > 100 µM (inactive)
- GI50 [11]: > 100 µM (inactive)
- GI50 [12]: > 100 µM (inactive)
- GI50 [13]: > 100 µM (inactive)
- GI50 [14]: > 100 µM (inactive)
- GI50 [15]: > 100 µM (inactive)
- GI50 [16]: > 100 µM (inactive)
- GI50 [17]: > 100 µM (inactive)
- GI50 [18]: > 100 µM (inactive)
- GI50 [19]: > 100 µM (inactive)
- GI50 [20]: > 100 µM (inactive)
- GI50 [21]: > 100 µM (inactive)
- GI50 [22]: > 100 µM (inactive)
- GI50 [23]: > 100 µM (inactive)
- GI50 [24]: > 100 µM (inactive)
- GI50 [25]: > 100 µM (inactive)
- GI50 [26]: > 100 µM (inactive)
- GI50 [27]: > 100 µM (inactive)
- GI50 [28]: > 100 µM (inactive)
- GI50 [29]: > 100 µM (inactive)
- GI50 [30]: > 100 µM (inactive)
- GI50 [31]: > 100 µM (inactive)
- GI50 [32]: > 100 µM (inactive)
- GI50 [33]: > 100 µM (inactive)
- GI50 [34]: > 100 µM (inactive)
- GI50 [35]: > 100 µM (inactive)
- GI50 [36]: > 100 µM (inactive)
- GI50 [37]: > 100 µM (inactive)
- GI50 [38]: > 100 µM (inactive)
- GI50 [39]: > 100 µM (inactive)
- GI50 [40]: > 100 µM (inactive)
- GI50 [41]: > 100 µM (inactive)
- GI50 [42]: > 100 µM (inactive)
- GI50 [43]: > 100 µM (inactive)
- GI50 [44]: > 100 µM (inactive)
- GI50 [45]: > 100 µM (inactive)
- GI50 [46]: > 100 µM (inactive)
- GI50 [47]: > 100 µM (inactive)
- GI50 [48]: > 100 µM (inactive)
- GI50 [49]: > 100 µM (inactive)
- GI50 [50]: > 100 µM (inactive)
- GI50 [51]: > 100 µM (inactive)
- GI50 [52]: > 100 µM (inactive)
- GI50 [53]: > 100 µM (inactive)
- GI50 [54]: > 100 µM (inactive)
- GI50 [55]: > 100 µM (inactive)
- GI50 [56]: > 100 µM (inactive)
- GI50 [57]: > 100 µM (inactive)

Compound: O=C(O)c1ccccc1CC1Cc2ccccc2C1
- GI50 [58]: > 100 µM (inactive)
- GI50 [1]: > 100 µM
- GI50 [2]: > 100 µM (inactive)
- GI50 [3]: > 100 µM (inactive)
- GI50 [4]: > 100 µM (inactive)
- GI50 [5]: > 100 µM (inactive)
- GI50 [6]: > 100 µM (inactive)
- GI50 [8]: > 100 µM (inactive)
- GI50 [9]: > 100 µM (inactive)
- GI50 [10]: > 100 µM (inactive)
- GI50 [11]: > 100 µM (inactive)
- GI50 [12]: > 100 µM (inactive)
- GI50 [13]: > 100 µM (inactive)
- GI50 [14]: > 100 µM (inactive)
- GI50 [15]: > 100 µM (inactive)
- GI50 [16]: > 100 µM (inactive)
- GI50 [17]: > 100 µM (inactive)
- GI50 [18]: > 100 µM (inactive)
- GI50 [19]: > 100 µM (inactive)
- GI50 [20]: > 100 µM (inactive)
- GI50 [21]: > 100 µM (inactive)
- GI50 [22]: > 100 µM (inactive)
- GI50 [23]: > 100 µM (inactive)
- GI50 [24]: > 100 µM (inactive)
- GI50 [25]: > 100 µM (inactive)
- GI50 [26]: > 100 µM (inactive)
- GI50 [27]: > 100 µM (inactive)
- GI50 [28]: > 100 µM (inactive)
- GI50 [29]: > 100 µM (inactive)
- GI50 [30]: > 100 µM (inactive)
- GI50 [31]: > 100 µM (inactive)
- GI50 [32]: > 100 µM (inactive)
- GI50 [33]: > 100 µM (inactive)
- GI50 [34]: > 100 µM (inactive)
- GI50 [35]: > 100 µM (inactive)
- GI50 [36]: > 100 µM (inactive)
- GI50 [37]: > 100 µM (inactive)
- GI50 [38]: > 100 µM (inactive)
- GI50 [39]: > 100 µM (inactive)
- GI50 [40]: > 100 µM (inactive)
- GI50 [41]: > 100 µM (inactive)
- GI50 [42]: > 100 µM (inactive)
- GI50 [43]: > 100 µM (inactive)
- GI50 [44]: > 100 µM (inactive)
- GI50 [45]: > 100 µM (inactive)
- GI50 [46]: > 100 µM (inactive)
- GI50 [47]: > 100 µM (inactive)
- GI50 [48]: > 100 µM (inactive)
- GI50 [49]: > 100 µM (inactive)
- GI50 [50]: > 100 µM (inactive)
- GI50 [51]: > 100 µM (inactive)
- GI50 [52]: > 100 µM (inactive)
- GI50 [59]: > 100 µM (inactive)
- GI50 [53]: > 100 µM (inactive)
- GI50 [54]: > 100 µM (inactive)
- GI50 [55]: > 100 µM (inactive)
- GI50 [56]: > 100 µM (inactive)
- GI50 [57]: > 100 µM (inactive)

Compound: COc1cc([C@H]2c3cc(O)c(OC)cc3C[C@]3(O)[C@@H]2CO[C@@H]3O)ccc1O
- GI50 [58]: > 100 µM (inactive)
- GI50 [1]: > 100 µM
- GI50 [2]: > 100 µM (inactive)
- GI50 [3]: > 100 µM (inactive)
- GI50 [4]: > 100 µM (inactive)
- GI50 [5]: > 100 µM (inactive)
- GI50 [6]: > 100 µM (inactive)
- GI50 [7]: > 100 µM (inactive)
- GI50 [8]: > 100 µM (inactive)
- GI50 [9]: > 100 µM (inactive)
- GI50 [11]: > 100 µM (inactive)
- GI50 [12]: > 100 µM (inactive)
- GI50 [13]: > 100 µM (inactive)
- GI50 [14]: > 100 µM (inactive)
- GI50 [15]: > 100 µM (inactive)
- GI50 [16]: > 100 µM (inactive)
- GI50 [17]: > 100 µM (inactive)
- GI50 [18]: > 100 µM (inactive)
- GI50 [19]: > 100 µM (inactive)
- GI50 [20]: > 100 µM (inactive)
- GI50 [21]: > 100 µM (inactive)
- GI50 [22]: > 100 µM (inactive)
- GI50 [23]: > 100 µM (inactive)
- GI50 [24]: > 100 µM (inactive)
- GI50 [25]: > 100 µM (inactive)
- GI50 [26]: > 100 µM (inactive)
- GI50 [28]: > 100 µM (inactive)
- GI50 [29]: > 100 µM (inactive)
- GI50 [30]: > 100 µM (inactive)
- GI50 [31]: > 100 µM (inactive)
- GI50 [32]: > 100 µM (inactive)
- GI50 [33]: > 100 µM (inactive)
- GI50 [34]: > 100 µM (inactive)
- GI50 [35]: > 100 µM (inactive)
- GI50 [36]: > 100 µM (inactive)
- GI50 [37]: > 100 µM (inactive)
- GI50 [38]: > 100 µM (inactive)
- GI50 [39]: > 100 µM (inactive)
- GI50 [40]: > 100 µM (inactive)
- GI50 [41]: > 100 µM (inactive)
- GI50 [42]: > 100 µM (inactive)
- GI50 [43]: > 100 µM (inactive)
- GI50 [44]: > 100 µM (inactive)
- GI50 [45]: > 100 µM (inactive)
- GI50 [46]: > 100 µM (inactive)
- GI50 [47]: > 100 µM (inactive)
- GI50 [48]: > 100 µM (inactive)
- GI50 [49]: > 100 µM (inactive)
- GI50 [50]: > 100 µM (inactive)
- GI50 [51]: > 100 µM (inactive)
- GI50 [52]: > 100 µM (inactive)
- GI50 [59]: > 100 µM (inactive)
- GI50 [53]: > 100 µM (inactive)
- GI50 [54]: > 100 µM (inactive)
- GI50 [55]: > 100 µM (inactive)
- GI50 [56]: > 100 µM (inactive)
- GI50 [57]: > 100 µM (inactive)
